Source: the supplement of paper PMC10307832

Assays:
Assay in all cases: relative viability (nuclei count vs DMSO), 5 days (fraction); higher = more cells survive
EMC-BAC-2 = test system: EMC-BAC-2
How it was run: (§1)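 Lung cancer cell lines in 1536-well plates were dosed by pin tool the day after seeding, either with one drug alone or with a fixed anchor-drug dose plus five library-drug doses (not always all listed) in √10 steps. After 5 days, cells were fixed and their nuclei stained in one step (final 0.05% Triton X-100, 1% formaldehyde, 1 ug/ml Hoechst), then counted on 4× images. Relative viability is the nuclei count in treated wells divided by that in vehicle wells. Values are medians of duplicate plates.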

LK-2 = test system: LK-2
How it was run: as §1

NCI-H727 = test system: NCI-H727
How it was run: as §1

HOP-62 = test system: HOP-62
How it was run: as §1

RERF-LC-KJ = test system: RERF-LC-KJ
How it was run: as §1

NCI-H1650 = test system: NCI-H1650
How it was run: as §1

NCI-H1651 = test system: NCI-H1651
How it was run: as §1

NCI-H1437 = test system: NCI-H1437
How it was run: as §1

HARA = test system: HARA
How it was run: as §1

HCC-366 = test system: HCC-366
How it was run: as §1

COR-L23 = test system: COR-L23
How it was run: as §1

CAL-12T = test system: CAL-12T
How it was run: as §1

NCI-H1734 = test system: NCI-H1734
How it was run: as §1

NCI-H596 = test system: NCI-H596
How it was run: as §1

PC-3 [JPC-3] = test system: PC-3 [JPC-3]
How it was run: as §1

SK-LU-1 = test system: SK-LU-1
How it was run: as §1

UMC-11 = test system: UMC-11
How it was run: as §1

NCI-H3122 = test system: NCI-H3122
How it was run: as §1

NCI-H2347 = test system: NCI-H2347
How it was run: as §1

NCI-H441 = test system: NCI-H441
How it was run: as §1

ABC-1 = test system: ABC-1
How it was run: as §1

NCI-H1755 = test system: NCI-H1755
How it was run: as §1

Cc1csc(=NC2CCCCC2)n1/N=C/c1ccc(O)c(O)c1O [MIM1] + O=C(c1cc(Cc2n[nH]c(=O)c3ccccc23)ccc1F)N1CCN(C(=O)C2CC2)CC1 [Olaparib] (partner 8 µM)
relative viability (EMC-BAC-2; first compound 0.2 µM): 0.494
relative viability (EMC-BAC-2; first compound 2 µM): 0.433
relative viability (EMC-BAC-2; first compound 6.325 µM): 0.378
relative viability (EMC-BAC-2; first compound 20 µM): 0.212
relative viability (LK-2; first compound 0.2 µM): 0.934
relative viability (LK-2; first compound 0.6325 µM): 0.75
relative viability (LK-2; first compound 2 µM): 0.472
relative viability (LK-2; first compound 6.325 µM): 0.685
relative viability (LK-2; first compound 20 µM): 0.148
relative viability (NCI-H727; first compound 0.2 µM): 0.7
relative viability (NCI-H727; first compound 0.6325 µM): 0.721
relative viability (NCI-H727; first compound 2 µM): 0.526
relative viability (NCI-H727; first compound 6.325 µM): 0.748
relative viability (NCI-H727; first compound 20 µM): 0.523
relative viability (HOP-62; first compound 0.2 µM): 0.424
relative viability (HOP-62; first compound 0.6325 µM): 0.529
relative viability (HOP-62; first compound 2 µM): 0.169
relative viability (HOP-62; first compound 6.325 µM): 0.293
relative viability (HOP-62; first compound 20 µM): 0.115
relative viability (RERF-LC-KJ; first compound 0.2 µM): 0.662
relative viability (RERF-LC-KJ; first compound 0.6325 µM): 0.557
relative viability (RERF-LC-KJ; first compound 2 µM): 0.197
relative viability (RERF-LC-KJ; first compound 6.325 µM): 0.221
relative viability (RERF-LC-KJ; first compound 20 µM): 0.215
relative viability (NCI-H1650; first compound 0.2 µM): 0.627
relative viability (NCI-H1650; first compound 0.6325 µM): 0.828
relative viability (NCI-H1650; first compound 2 µM): 0.499
relative viability (NCI-H1650; first compound 6.325 µM): 0.226
relative viability (NCI-H1650; first compound 20 µM): 0.233
relative viability (NCI-H1651; first compound 0.2 µM): 0.184
relative viability (NCI-H1651; first compound 0.6325 µM): 0.174
relative viability (NCI-H1651; first compound 2 µM): 0.177
relative viability (NCI-H1651; first compound 6.325 µM): 0.159
relative viability (NCI-H1651; first compound 20 µM): 0.153
relative viability (NCI-H1437; first compound 0.2 µM): 0.615
relative viability (NCI-H1437; first compound 0.6325 µM): 0.644
relative viability (NCI-H1437; first compound 2 µM): 0.58
relative viability (NCI-H1437; first compound 6.325 µM): 0.192
relative viability (NCI-H1437; first compound 20 µM): 0.206
relative viability (HARA; first compound 0.2 µM): 0.792
relative viability (HARA; first compound 0.6325 µM): 1.06
relative viability (HARA; first compound 2 µM): 0.824
relative viability (HARA; first compound 6.325 µM): 0.187
relative viability (HARA; first compound 20 µM): 0.177
relative viability (HCC-366; first compound 0.2 µM): 0.351
relative viability (HCC-366; first compound 2 µM): 0.249
relative viability (HCC-366; first compound 6.325 µM): 0.0373
relative viability (HCC-366; first compound 20 µM): 0.0269
relative viability (COR-L23; first compound 0.2 µM): 0.29
relative viability (COR-L23; first compound 0.6325 µM): 0.365
relative viability (COR-L23; first compound 2 µM): 0.287
relative viability (COR-L23; first compound 6.325 µM): 0.224
relative viability (COR-L23; first compound 20 µM): 0.164
relative viability (CAL-12T; first compound 0.2 µM): 0.708
relative viability (CAL-12T; first compound 0.6325 µM): 0.685
relative viability (CAL-12T; first compound 2 µM): 0.682
relative viability (CAL-12T; first compound 6.325 µM): 0.505
relative viability (CAL-12T; first compound 20 µM): 0.396
relative viability (NCI-H1734; first compound 0.2 µM): 0.58
relative viability (NCI-H1734; first compound 0.6325 µM): 0.632
relative viability (NCI-H1734; first compound 2 µM): 0.559
relative viability (NCI-H1734; first compound 6.325 µM): 0.496
relative viability (NCI-H1734; first compound 20 µM): 0.132
relative viability (NCI-H596; first compound 0.2 µM): 0.741
relative viability (NCI-H596; first compound 0.6325 µM): 0.73
relative viability (NCI-H596; first compound 2 µM): 0.694
relative viability (NCI-H596; first compound 6.325 µM): 0.626
relative viability (NCI-H596; first compound 20 µM): 0.491
relative viability (PC-3 [JPC-3]; first compound 0.2 µM): 1.14
relative viability (PC-3 [JPC-3]; first compound 0.6325 µM): 1.04
relative viability (PC-3 [JPC-3]; first compound 2 µM): 1.07
relative viability (PC-3 [JPC-3]; first compound 6.325 µM): 0.871
relative viability (PC-3 [JPC-3]; first compound 20 µM): 0.504
relative viability (SK-LU-1; first compound 0.2 µM): 0.447
relative viability (SK-LU-1; first compound 0.6325 µM): 0.559
relative viability (SK-LU-1; first compound 2 µM): 0.575
relative viability (SK-LU-1; first compound 6.325 µM): 0.281
relative viability (SK-LU-1; first compound 20 µM): 0.299
relative viability (UMC-11; first compound 0.2 µM): 0.408
relative viability (UMC-11; first compound 0.6325 µM): 0.4
relative viability (UMC-11; first compound 2 µM): 0.548
relative viability (UMC-11; first compound 6.325 µM): 0.237
relative viability (UMC-11; first compound 20 µM): 0.183
relative viability (NCI-H3122; first compound 0.2 µM): 0.626
relative viability (NCI-H3122; first compound 0.6325 µM): 0.643
relative viability (NCI-H3122; first compound 2 µM): 0.618
relative viability (NCI-H3122; first compound 6.325 µM): 0.325
relative viability (NCI-H3122; first compound 20 µM): 0.113
relative viability (NCI-H2347; first compound 0.2 µM): 0.525
relative viability (NCI-H2347; first compound 0.6325 µM): 0.559
relative viability (NCI-H2347; first compound 2 µM): 0.653
relative viability (NCI-H2347; first compound 6.325 µM): 0.508
relative viability (NCI-H2347; first compound 20 µM): 0.469
relative viability (NCI-H441; first compound 0.2 µM): 0.485
relative viability (NCI-H441; first compound 0.6325 µM): 0.66
relative viability (NCI-H441; first compound 2 µM): 0.581
relative viability (NCI-H441; first compound 6.325 µM): 0.254
relative viability (NCI-H441; first compound 20 µM): 0.144
relative viability (ABC-1; first compound 0.2 µM): 0.952
relative viability (ABC-1; first compound 0.6325 µM): 1.27
relative viability (ABC-1; first compound 2 µM): 1.03
relative viability (ABC-1; first compound 6.325 µM): 0.78
relative viability (ABC-1; first compound 20 µM): 0.388
relative viability (NCI-H1755; first compound 0.2 µM): 0.857
relative viability (NCI-H1755; first compound 0.6325 µM): 0.84
relative viability (NCI-H1755; first compound 2 µM): 0.94
relative viability (NCI-H1755; first compound 6.325 µM): 0.699
relative viability (NCI-H1755; first compound 20 µM): 0.262
